Laboratory results taken from PubChem BioAssay (NCI).
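Following 48 hours of exposure in 96-well plates, responses at five concentrations were used to interpolate endpoints linearly. TGI denotes the concentration required for complete inhibition of growth.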

Columns and labels:
Experiment in all cases: NCI anticancer screen, dose series, 48 h
786-0 renal = test system: 786-0 renal
A498 renal = test system: A498 renal
A549 NSCLC = test system: A549 NSCLC
ACHN renal = test system: ACHN renal
BT-549 breast = test system: BT-549 breast
CAKI-1 renal = test system: CAKI-1 renal
CCRF-CEM leukemia = test system: CCRF-CEM leukemia
COLO 205 colon = test system: COLO 205 colon
DU-145 prostate = test system: DU-145 prostate
EKVX NSCLC = test system: EKVX NSCLC
HCC-2998 colon = test system: HCC-2998 colon
HCT-116 colon = test system: HCT-116 colon
HCT-15 colon = test system: HCT-15 colon
HL-60(TB) leukemia = test system: HL-60(TB) leukemia
HOP-62 NSCLC = test system: HOP-62 NSCLC
HOP-92 NSCLC = test system: HOP-92 NSCLC
HS 578T breast = test system: HS 578T breast
HT29 colon = test system: HT29 colon
IGROV1 ovarian = test system: IGROV1 ovarian
K-562 leukemia = test system: K-562 leukemia
KM12 colon = test system: KM12 colon
LOX IMVI melanoma = test system: LOX IMVI melanoma
M14 melanoma = test system: M14 melanoma
MALME-3M melanoma = test system: MALME-3M melanoma
MCF7 breast = test system: MCF7 breast
MDA-MB-231 breast = test system: MDA-MB-231 breast
MDA-MB-435 = test system: MDA-MB-435
MDA-N = test system: MDA-N
MOLT-4 leukemia = test system: MOLT-4 leukemia
NCI-H226 lung = test system: NCI-H226 lung
NCI-H23 lung = test system: NCI-H23 lung
NCI-H460 lung = test system: NCI-H460 lung
NCI-H522 lung = test system: NCI-H522 lung
NCI/ADR-RES ovarian = test system: NCI/ADR-RES ovarian
OVCAR-3 ovarian = test system: OVCAR-3 ovarian
OVCAR-4 ovarian = test system: OVCAR-4 ovarian
OVCAR-5 ovarian = test system: OVCAR-5 ovarian
OVCAR-8 ovarian = test system: OVCAR-8 ovarian
PC-3 prostate = test system: PC-3 prostate
RPMI-8226 leukemia = test system: RPMI-8226 leukemia
RXF 393 renal = test system: RXF 393 renal
SF-268 CNS = test system: SF-268 CNS
SF-295 CNS = test system: SF-295 CNS
SF-539 CNS = test system: SF-539 CNS
SK-MEL-2 melanoma = test system: SK-MEL-2 melanoma
SK-MEL-28 melanoma = test system: SK-MEL-28 melanoma
SK-MEL-5 melanoma = test system: SK-MEL-5 melanoma
SK-OV-3 ovarian = test system: SK-OV-3 ovarian
SN12C renal = test system: SN12C renal
SNB-19 CNS = test system: SNB-19 CNS
SNB-75 CNS = test system: SNB-75 CNS
SR leukemia = test system: SR leukemia
SW-620 colon = test system: SW-620 colon
T-47D breast = test system: T-47D breast
TK-10 renal = test system: TK-10 renal
U251 CNS = test system: U251 CNS
UACC-257 melanoma = test system: UACC-257 melanoma
UACC-62 melanoma = test system: UACC-62 melanoma
UO-31 renal = test system: UO-31 renal

## Cc1cc(N(CCC#N)CCC#N)ccc1/C=N/NC(=O)c1ccccc1
786-0 renal
  TGI: > 100 µM
A498 renal
  TGI: 65.4 µM
A549 NSCLC
  TGI: > 100 µM
ACHN renal
  TGI: > 100 µM
BT-549 breast
  TGI: > 100 µM
CAKI-1 renal
  TGI: > 100 µM
CCRF-CEM leukemia
  TGI: 98.1 µM
COLO 205 colon
  TGI: > 100 µM
DU-145 prostate
  TGI: > 86.2 µM
EKVX NSCLC
  TGI: > 100 µM
HCC-2998 colon
  TGI: 55.1 µM
HCT-116 colon
  TGI: > 92.6 µM
HCT-15 colon
  TGI: > 100 µM
HL-60(TB) leukemia
  TGI: > 27.2 µM
HOP-62 NSCLC
  TGI: > 100 µM
HOP-92 NSCLC
  TGI: > 100 µM
HS 578T breast
  TGI: > 56.5 µM
HT29 colon
  TGI: 14.2 µM
IGROV1 ovarian
  TGI: > 100 µM
K-562 leukemia
  TGI: > 100 µM
KM12 colon
  TGI: > 100 µM
LOX IMVI melanoma
  TGI: > 100 µM
M14 melanoma
  TGI: > 100 µM
MALME-3M melanoma
  TGI: > 100 µM
MCF7 breast
  TGI: > 100 µM
MDA-MB-231 breast
  TGI: > 81.3 µM
MDA-MB-435
  TGI: > 38.9 µM
MDA-N
  TGI: 10.6 µM
MOLT-4 leukemia
  TGI: > 100 µM
NCI-H226 lung
  TGI: 84.1 µM
NCI-H23 lung
  TGI: > 100 µM
NCI-H460 lung
  TGI: > 100 µM
NCI-H522 lung
  TGI: 39.3 µM
NCI/ADR-RES ovarian
  TGI: 36.1 µM
OVCAR-3 ovarian
  TGI: > 84 µM
OVCAR-4 ovarian
  TGI: > 100 µM
OVCAR-5 ovarian
  TGI: > 100 µM
OVCAR-8 ovarian
  TGI: > 82.8 µM
PC-3 prostate
  TGI: > 100 µM
RPMI-8226 leukemia
  TGI: > 100 µM
RXF 393 renal
  TGI: > 100 µM
SF-268 CNS
  TGI: > 100 µM
SF-295 CNS
  TGI: > 100 µM
SF-539 CNS
  TGI: 47.5 µM
SK-MEL-2 melanoma
  TGI: > 100 µM
SK-MEL-28 melanoma
  TGI: > 100 µM
SK-MEL-5 melanoma
  TGI: > 100 µM
SK-OV-3 ovarian
  TGI: > 100 µM
SN12C renal
  TGI: > 100 µM
SNB-19 CNS
  TGI: > 100 µM
SNB-75 CNS
  TGI: > 100 µM
SR leukemia
  TGI: > 43.2 µM
SW-620 colon
  TGI: > 100 µM
T-47D breast
  TGI: > 100 µM
TK-10 renal
  TGI: > 100 µM
U251 CNS
  TGI: > 100 µM
UACC-257 melanoma
  TGI: > 100 µM
UACC-62 melanoma
  TGI: > 100 µM
UO-31 renal
  TGI: > 100 µM

## CCCCC(=O)OC[n+]1ccc(-c2c(COC(=O)NC(C)C)c(COC(=O)NC(C)C)c3n2CCC3)cc1
786-0 renal
  TGI: > 100 µM
A498 renal
  TGI: 76.5 µM
A549 NSCLC
  TGI: > 100 µM
ACHN renal
  TGI: > 100 µM
BT-549 breast
  TGI: > 100 µM
CAKI-1 renal
  TGI: > 100 µM
CCRF-CEM leukemia
  TGI: > 100 µM
COLO 205 colon
  TGI: > 100 µM
DU-145 prostate
  TGI: > 100 µM
EKVX NSCLC
  TGI: > 100 µM
HCC-2998 colon
  TGI: > 100 µM
HCT-116 colon
  TGI: > 100 µM
HCT-15 colon
  TGI: > 100 µM
HL-60(TB) leukemia
  TGI: > 79.8 µM
HOP-62 NSCLC
  TGI: > 100 µM
HOP-92 NSCLC
  TGI: > 100 µM
HS 578T breast
  TGI: > 100 µM
HT29 colon
  TGI: > 100 µM
IGROV1 ovarian
  TGI: > 100 µM
K-562 leukemia
  TGI: > 100 µM
KM12 colon
  TGI: > 100 µM
LOX IMVI melanoma
  TGI: > 100 µM
M14 melanoma
  TGI: > 100 µM
MALME-3M melanoma
  TGI: > 100 µM
MCF7 breast
  TGI: > 100 µM
MDA-MB-231 breast
  TGI: > 100 µM
MDA-MB-435
  TGI: > 100 µM
MDA-N
  TGI: > 100 µM
MOLT-4 leukemia
  TGI: > 80.7 µM
NCI-H226 lung
  TGI: > 100 µM
NCI-H23 lung
  TGI: > 100 µM
NCI-H460 lung
  TGI: > 100 µM
NCI-H522 lung
  TGI: > 100 µM
NCI/ADR-RES ovarian
  TGI: > 100 µM
OVCAR-3 ovarian
  TGI: > 100 µM
OVCAR-4 ovarian
  TGI: > 100 µM
OVCAR-5 ovarian
  TGI: > 100 µM
OVCAR-8 ovarian
  TGI: > 100 µM
PC-3 prostate
  TGI: > 100 µM
RPMI-8226 leukemia
  TGI: > 100 µM
RXF 393 renal
  TGI: > 100 µM
SF-268 CNS
  TGI: > 100 µM
SF-295 CNS
  TGI: > 100 µM
SF-539 CNS
  TGI: > 100 µM
SK-MEL-2 melanoma
  TGI: > 100 µM
SK-MEL-28 melanoma
  TGI: > 100 µM
SK-MEL-5 melanoma
  TGI: > 100 µM
SK-OV-3 ovarian
  TGI: > 100 µM
SN12C renal
  TGI: > 100 µM
SNB-19 CNS
  TGI: > 100 µM
SNB-75 CNS
  TGI: > 100 µM
SR leukemia
  TGI: > 84.4 µM
SW-620 colon
  TGI: > 100 µM
T-47D breast
  TGI: > 100 µM
TK-10 renal
  TGI: > 100 µM
U251 CNS
  TGI: > 100 µM
UACC-257 melanoma
  TGI: > 100 µM
UACC-62 melanoma
  TGI: > 100 µM
UO-31 renal
  TGI: > 100 µM
